Assay results: patent US8716292B2, “Riminophenazines with 2-(heteroaryl)amino substituents and their anti-microbial activity” (priority 2010, dated 2014)
Converted amounts (≈) assume the structure as drawn.

Tested on: Mycobacterium tuberculosis H37Rv strains
Assay: In vitro assay for antimicrobial susceptibility (microplate Alamar blue MIC)
Assay type: cell-based
Settings: Mycobacterium tuberculosis, H37RV, 7H9, Alamar blue, inhibition ≧90%; read-out: MIC (μg/mL) against H37Rv

Structure (SMILES) | MIC [µg/mL]
CC(C)/N=c1\cc2n(-c3ccc(OC(F)(F)F)cc3)c3ccccc3nc-2cc1Nc1ncccn1 [TBI-951, 5-(4-Trifluoromethoxyphenyl)-3-(1-methylethyl)imino-2-(pyrimidin-2-yl)amino-3,5-dihydrophenazine] | 0.019 (≈ 0.0387 µM)
COC1CCC(/N=c2\cc3n(-c4ccc(F)c(F)c4)c4ccccc4nc-3cc2Nc2ccc([N+](=O)[O-])cn2)CC1 (stereo not drawn) [TBI-1444, 5-(3,4-Difluorophenyl)-3-(4-methoxycyclohexyl)imino-2-(5-nitro-2-pyridyl)amino-3,5-dihydrophenazine] | 0.114 (≈ 0.205 µM)
COC1CCC(/N=c2\cc3n(-c4ccc(F)cc4)c4ccccc4nc-3cc2Nc2ncccc2[N+](=O)[O-])CC1 (stereo not drawn) [TBI-1083, 5-(4-Fluorophenyl)-3-(4-methoxycyclohexyl)imino-2-(3-nitro-2-pyridyl)amino-3,5-dihydrophenazine] | 5.81 (≈ 10.8 µM)
COC1CCC(/N=c2\cc3n(-c4ccc(F)cc4)c4ccccc4nc-3cc2Nc2ccccn2)CC1 (stereo not drawn) [TBI-1078, 5-(4-Fluorophenyl)-3-(4-methoxycyclohexyl)imino-2-(2-pyridyl)amino-3,5-dihydrophenazine] | 0.028 (≈ 0.0567 µM)

Same assay, conditions: Mycobacterium tuberculosis, H37RV, in vitro, Mycobacterium tuberculosis H37Rv strains; read-out: MIC (μg/mL) against H37Rv

Structure (SMILES) | MIC [µg/mL]
Cc1ccc(Nc2cc3nc4ccccc4n(-c4ccc(C(F)(F)F)cc4)c-3c/c2=N\C2CCN(C)CC2)cn1 [TBI-697, 5-(4-Trifluoromethylphenyl)-3-(N-methyl-4-piperidyl)imino-2-(6-methyl-3-pyridyl)amino-3,5-dihydrophenazine] | 0.053 (≈ 0.0977 µM)
c1ccc(-n2c3c/c(=N\CCN4CCOCC4)c(Nc4cccnc4)cc-3nc3ccccc32)cc1 [TBI-056, 5-Phenyl-3-(2-morpholinoethyl)imino-2-(3-pyridyl)amino-3,5-dihydrophenazine] | 0.25 (≈ 0.525 µM)
Cc1ccc(Nc2cc3nc4ccccc4n(-c4ccccc4)c-3c/c2=N\C2CCCCC2)cn1 [TBI-080, 5-Phenyl-3-cyclohexylimino-2-(6-methyl-3-pyridyl)amino-3,5-dihydrophenazine] | 0.243 (≈ 0.529 µM)
CC(C)/N=c1\cc2n(-c3ccc(F)cc3)c3ccccc3nc-2cc1Nc1cccnc1 [TBI-679, 5-(4-Fluorophenyl)-3-(1-methylethyl)imino-2-(3-pyridyl)amino-3,5-dihydrophenazine] | 0.03 (≈ 0.0708 µM)
CC(=O)Nc1ccc(Nc2cc3nc4ccccc4n(-c4ccc(F)cc4)c-3c/c2=N\C2CCOCC2)cn1 [TBI-911, 5-(4-Fluorophenyl)-3-(4-tetrahydropyranyl)imino-2-(6-acetamino-3-pyridyl)amino-3,5-dihydrophenazine] | 0.36 (≈ 0.689 µM)
Cc1ccc(-n2c3c/c(=N\C(C)C)c(Nc4cncc(C)c4)cc-3nc3ccccc32)cc1 [TBI-327, 5-(4-Methylphenyl)-3-(1-methylethyl)imino-2-(5-methyl-3-pyridyl)amino-3,5-dihydrophenazine] | 0.109 (≈ 0.251 µM)
Cc1cncc(Nc2cc3nc4ccccc4n(-c4ccc(F)cc4)c-3c/c2=N\C2CCC2)c1 [TBI-1031] | 0.028 (≈ 0.0623 µM)
Cc1ccc(Nc2cc3nc4ccccc4n(-c4ccc(Cl)cc4)c-3c/c2=N\C2CCN(CC(C)C)CC2)cn1 [TBI-447, 5-(4-Chlorophenyl)-3-(N-isobutyl-4-piperidyl)imino-2-(6-methyl-3-pyridyl)amino-3,5-dihydrophenazine] | 0.028 (≈ 0.0508 µM)
COc1ccc(Nc2cc3nc4ccccc4n(-c4ccc(C)cc4)c-3c/c2=N\C2CCOCC2)cn1 [TBI-360, 5-(4-Methylphenyl)-3-(4-tetrahydropyranyl)imino-2-(6-methoxy-3-pyridyl)amino-3,5-dihydrophenazine] | 0.2 (≈ 0.407 µM)
Cc1ccc(Nc2cc3nc4ccccc4n(-c4ccccc4)c-3c/c2=N\C2CCN(C)CC2)cn1 [TBI-069, 5-Phenyl-3-(N-methyl-4-piperidyl)imino-2-(6-methyl-3-pyridyl)amino-3,5-dihydrophenazine] | 0.219 (≈ 0.461 µM)
Cc1ccc(Nc2cc3nc4ccccc4n(-c4ccc(Cl)cc4)c-3c/c2=N\CCN2CCOCC2)cn1 [TBI-445, 5-(4-Chlorophenyl)-3-(2-morpholinoethyl)imino-2-(6-methyl-3-pyridyl)amino-3,5-dihydrophenazine] | 0.076 (≈ 0.145 µM)
COc1ncccc1Nc1cc2nc3cc(F)ccc3n(-c3ccc(Cl)cc3)c-2c/c1=N\C1CCOCC1 [TBI-937, 8-Fluoro-5-(4-chlorophenyl)-3-(4-tetrahydropyranyl)imino-2-(2-methoxy-3-pyridyl)amino-3,5-dihydrophenazine] | 0.125 (≈ 0.236 µM)
COc1ncccc1Nc1cc2nc3ccccc3n(-c3ccc(C(F)(F)F)cc3)c-2c/c1=N\C1CC1 [TBI-718, 5-(4-Trifluoromethylphenyl)-3-cyclopropylimino-2-(2-methoxy-3-pyridyl)amino-3,5-dihydrophenazine] | 0.015 (≈ 0.0299 µM)
Cc1ncccc1Nc1cc2nc3ccccc3n(-c3ccc(Br)cc3)c-2c/c1=N\C1CCCCC1 [TBI-508, 5-(4-Bromophenyl)-3-cyclohexylimino-2-(2-methyl-3-pyridyl)amino-3,5-dihydrophenazine] | 0.021 (≈ 0.039 µM)
COc1ncccc1Nc1cc2nc3cc(F)ccc3n(-c3ccc(Cl)cc3)c-2c/c1=N\C1CC1 [TBI-859, 8-Fluoro-5-(4-chlorophenyl)-3-cyclopropylimino-2-(2-methoxy-3-pyridyl)amino-3,5-dihydrophenazine] | 0.015 (≈ 0.0309 µM)
COc1ncccc1Nc1cc2nc3ccccc3n(-c3cccc(OC(F)(F)F)c3)c-2c/c1=N\C1CCOCC1 [TBI-1041, 5-(3-Trifluoromethoxyphenyl)-3-(4-tetrahydropyranyl)imino-2-(2-methoxy-3-pyridyl)amino-3,5-dihydrophenazine] | 0.115 (≈ 0.205 µM)
COc1ncccc1Nc1cc2nc3cc(F)ccc3n(-c3ccc(Cl)c(Cl)c3)c-2c/c1=N\C(C)C [TBI-874, 8-Fluoro-5-(3,4-dichlorophenyl)-3-(1-methylethyl)imino-2-(2-methoxy-3-pyridyl)amino-3,5-dihydrophenazine] | 0.129 (≈ 0.247 µM)
Cc1ccc(Nc2cc3nc4ccccc4n(-c4ccccc4)c-3c/c2=N\C(C)C)cn1 [TBI-067, 5-Phenyl-3-(1-methylethyl)imino-2-(6-methyl-3-pyridyl)amino-3,5-dihydrophenazine] | 0.048 (≈ 0.114 µM)

Structure (SMILES) | MIC [µg/mL]
COc1ncccc1Nc1cc2nc3ccccc3n(-c3ccc(C(F)(F)F)cc3)c-2c/c1=N\C1CCN(CC(C)C)CC1 [TBI-702] | 0.016 (≈ 0.0266 µM)
COc1ccc(Nc2cc3nc4ccccc4n(-c4ccc(C(F)(F)F)cc4)c-3c/c2=N\C2CC2)cn1 [TBI-736, 5-(4-Trifluoromethylphenyl)-3-cyclopropylimino-2-(6-methoxy-3-pyridyl)amino-3,5-dihydrophenazine] | 0.224 (≈ 0.447 µM)
Clc1cccc(-n2c3c/c(=N\C4CCC4)c(Nc4cccnc4)cc-3nc3ccccc32)c1 [TBI-814, 5-(3-Chlorophenyl)-3-cyclobutylimino-2-(3-pyridyl)amino-3,5-dihydrophenazine] | 0.04 (≈ 0.0885 µM)
Cc1ncccc1Nc1cc2nc3ccccc3n(-c3ccc(C(F)(F)F)cc3)c-2c/c1=N\C1CCC1 [TBI-734, 5-(4-Trifluoromethylphenyl)-3-cyclobutylimino-2-(2-methyl-3-pyridyl)amino-3,5-dihydrophenazine] | 0.014 (≈ 0.028 µM)
Cc1ncccc1Nc1cc2nc3ccccc3n(-c3ccc(C(F)(F)F)cc3)c-2c/c1=N\C1CC1 [TBI-729] | 0.186 (≈ 0.383 µM)
Clc1ccc(-n2c3c/c(=N\CCN4CCOCC4)c(Nc4cccnc4)cc-3nc3ccccc32)cc1 [TBI-433, 5-(4-Chlorophenyl)-3-(2-morpholinoethyl)imino-2-(3-pyridyl)amino-3,5-dihydrophenazine] | 0.25 (≈ 0.489 µM)
COc1ncccc1Nc1cc2nc3ccccc3n(-c3ccc(OC(F)(F)F)cc3)c-2c/c1=N\C1CCN(CC(C)C)CC1 [TBI-165, 5-(4-Trifluoromethoxyphenyl)-3-(N-isobutyl-4-piperidyl)imino-2-(2-methoxy-3-pyridyl)amino-3,5-dihydrophenazine] | 0.016 (≈ 0.0259 µM)
Cc1cncc(Nc2cc3nc4ccccc4n(-c4ccc(F)cc4)c-3c/c2=N\C(C)C)c1 [TBI-1025, 5-(4-Fluorophenyl)-3-(1-methylethyl)imino-2-(5-methyl-3-pyridyl)amino-3,5-dihydrophenazine] | 0.122 (≈ 0.279 µM)
COc1ccc(Nc2cc3nc4ccccc4n(-c4ccc(F)cc4)c-3c/c2=N\C2CCC2)cn1 [TBI-934, 5-(4-Fluorophenyl)-3-cyclobutylimino-2-(6-methoxy-3-pyridyl)amino-3,5-dihydrophenazine] | 0.3 (≈ 0.644 µM)
COc1ncccc1Nc1cc2nc3ccccc3n(-c3cccc(F)c3)c-2c/c1=N\C(C)C [TBI-523] | 0.06 (≈ 0.132 µM)
COCC(COC)/N=c1\cc2n(-c3ccc(C)cc3)c3ccccc3nc-2cc1Nc1ccc(C)nc1 [TBI-374, 5-(4-Methylphenyl)-3-(1,3-dimethoxyisopropyl)imino-2-(6-methyl-3-pyridyl)amino-3,5-dihydrophenazine] | 0.125 (≈ 0.253 µM)
Cc1cncc(Nc2cc3nc4ccccc4n(-c4ccccc4)c-3c/c2=N\C2CCC(O)CC2)c1 (stereo not drawn) [TBI-085, 5-Phenyl-3-(4-hydroxycyclohexyl)imino-2-(5-methyl-3-pyridyl)amino-3,5-dihydrophenazine] | 0.5 (≈ 1.05 µM)
COc1ncccc1Nc1cc2nc3ccccc3n(-c3ccc(NC(C)=O)cc3)c-2c/c1=N\C1CCCCC1 [TBI-1223, 5-(4-Acetamidophenyl)-3-cyclohexylimino-2-(2-methoxy-3-pyridyl)amino-3,5-dihydrophenazine] | 1.49 (≈ 2.79 µM)
COC1CCC(/N=c2\cc3n(-c4ccc(Cl)c(Cl)c4)c4ccccc4nc-3cc2Nc2ccc(C)nc2)CC1 (stereo not drawn) [TBI-355, 5-(3,4-Dichlorophenyl)-3-(4-methoxycyclohexyl)imino-2-(6-methyl-3-pyridyl)amino-3,5-dihydrophenazine] | 0.09 (≈ 0.161 µM)
COc1ncccc1Nc1cc2nc3ccccc3n(-c3ccc(F)cc3)c-2c/c1=N\C1CCSCC1 [TBI-1042, 5-(4-Fluorophenyl)-3-(4-tetrahydrothiopyranyl)imino-2-(2-methoxy-3-pyridyl)amino-3,5-dihydrophenazine] | 0.034 (≈ 0.0665 µM)
Clc1ccc(-n2c3c/c(=N\C4CCCCC4)c(Nc4cccnc4)cc-3nc3ccccc32)cc1Cl [TBI-350, 5-(3,4-Dichlorophenyl)-3-cyclohexylimino-2-(3-pyridyl)amino-3,5-dihydrophenazine] | 0.031 (≈ 0.0603 µM)
COc1ncccc1Nc1cc2nc3ccccc3n(-c3ccccc3)c-2c/c1=N\C1CCOCC1 [TBI-066, 5-Phenyl-3-(4-tetrahydropyranyl)imino-2-(2-methoxy-3-pyridyl)amino-3,5-dihydrophenazine] | 0.026 (≈ 0.0544 µM)
